# In paper PMC7555312, “Functional Characterization of Temporin-SHe, a New Broad-Spectrum Antibacterial and Leishmanicidal Temporin-SH Paralog from the Sahara Frog (Pelophylax saharicus)” (International Journal of Molecular Sciences, 2020):
# Where no end group is shown, it is not given here.
# Assays:
# E. coli ATCC 25922 [1] = assay type: cell-based, Escherichia coli
# Description: (§3) Antimicrobial activity was assessed with a liquid growth inhibition assay performed according to a previously described protocol [14] using the Clinical and Laboratory Standards Institute (CLSI) guidelines. Briefly, in 96-well microtitration plates, mid-log-phase bacteria diluted to 10^6 CFU/mL in Mueller–Hinton (MH) broth were added to different concentrations of synthetic temporin-SHe (1–200 µM, final concentrations) and incubated at 37 °C for 18–20 h, under shaking (150 rpm). For E. faecalis, L. ivanovii and yeasts/fungi, 10^6 CFU/mL suspensions were prepared in LB broth, brain heart infusion (BHI) medium and Yeast Peptone Dextrose (YPD) medium, respectively, and incubation was performed at 30 °C for yeasts/fungi. […] MIC values represent the average of three independent experiments, each performed in triplicate with negative (no peptide) and positive (formaldehyde 0.7%) controls.
# P. aeruginosa ATCC 27853 = assay type: cell-based, Pseudomonas aeruginosa
# Description: as §3
# S. cerevisiae = assay type: cell-based, Saccharomyces cerevisiae
# Description: as §3
# E. coli ATCC 25922 [2] = assay: Time-killing assay; assay type: cell-based, Escherichia coli; settings: two-fold MIC (50 µM temporin-SHe), 10^6 cfu/mL in PBS, plate counting
# Description: Aliquots were withdrawn at different times and spread onto LB agar plates for cell counting after overnight incubation at 37 °C. Controls corresponding to the bacterial suspensions without peptide were also run. Two independent experiments were performed in triplicate. Results were expressed as the mean ± S.D. of a representative experiment.
# L. ivanovii (Li4pVS2) = settings: liquid growth inhibition (CLSI), 10^6 CFU/mL in brain heart infusion (BHI) medium, 37 °C, 18–20 h, OD 630 nm; mean of three independent experiments in triplicate
# Description: (§1) Antibacterial activity of temporin-SHe was evaluated against Gram-positive bacteria including S. aureus strains (ATCC 25923, ST1065), antibiotic-resistant S. aureus strains (ATCC 43300, ATCC BAA-44), E. faecalis (ATCC 29212), B. megaterium, and L. ivanovii (Li4pVS2), and Gram-negative bacteria including E. coli strains (ATCC 25922, ATCC 35218, ML-35p), S. enterica (serotype Enteritidis), P. aeruginosa (ATCC 27853), A. baumannii (ATCC 19606) and K. pneumoniae (ATCC 13883). Antifungal activity was evaluated against C. albicans (ATCC 90028), C. parapsilosis (ATCC 22019) and S. cerevisiae. ATCC strains were purchased from American-Type Culture Collection (ATCC, Virginia, VA, USA). Antiparasitic activity was determined against promastigotes of several species of Leishmania responsible for visceral, cutaneous and mucocutaneous leishmaniases: L. infantum (strain MHOM/MA/67/ITMAP-263), L. major (strain MHOM/SU/73/5-ASKH), and L. braziliensis (strain MHOM/BR/75/M2904), respectively. Cytotoxicity was assessed against human red blood cells and THP-1 monocytes. Peripheral blood was obtained from healthy adult donors (Établissement Français du Sang, Paris, France). All donors signed informed consent allowing the use of their blood for research purposes.
# (§2) Antimicrobial activity was assessed with a liquid growth inhibition assay performed according to a previously described protocol using the Clinical and Laboratory Standards Institute (CLSI) guidelines. Briefly, in 96-well microtitration plates, mid-log-phase bacteria diluted to 10^6 CFU/mL in Mueller–Hinton (MH) broth were added to different concentrations of synthetic temporin-SHe (1–200 µM, final concentrations) and incubated at 37 °C for 18–20 h, under shaking (150 rpm). For E. faecalis, L. ivanovii and yeasts/fungi, 10^6 CFU/mL suspensions were prepared in LB broth, brain heart infusion (BHI) medium and Yeast Peptone Dextrose (YPD) medium, respectively, and incubation was performed at 30 °C for yeasts/fungi. […] MIC values represent the average of three independent experiments, each performed in triplicate with negative (no peptide) and positive (formaldehyde 0.7%) controls.
# S. aureus ATCC BAA-44 = test system: S. aureus ATCC BAA-44
# Description: as §1, §2
# [3] = test system: S. enterica (serotype Enteritidis)
# Description: as §1, §2
# [4] = test system: all tested Gram-positive bacteria; settings: range over all tested Gram-positive bacteria
# Description: as §1, §2
# E. coli strains = assay type: cell-based, Escherichia coli
# Description: as §3
substance,measurement,setting,value
FLPALAGIAGLLGKIF-NH2 [Temporin-SHe],MIC,E. coli ATCC 25922 [1],25 µM
same,MIC,P. aeruginosa ATCC 27853,60 µM
same,MIC,S. cerevisiae,12.5 µM
same,time to total killing,E. coli ATCC 25922 [2],90 min
same,MIC,L. ivanovii (Li4pVS2),5 µM
same,MIC,S. aureus ATCC BAA-44,3.12 µM
same,MIC,[3],100 µM
same,MIC range,[4],1.56 to 12.5 µM
same,MIC range,E. coli strains,25 to 50 µM
